Experimental findings from patent US20230143612A1 (Arbutus Biopharma Corporation, priority 2020, published 2023) are described below.

In this test the target is PD-L1 His protein / PD-1 Fc protein (Homo sapiens, UniProt Q9NZQ7). The test is described as follows: HTRF Assay (PD-1/PD-L1 interaction). The test is classed as binding. As to conditions: PD-L1 His 6 nM, PD-1 Fc 6 nM. The method in brief:
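HTRF: PD-L1 His (6 nM final), compound (3-fold dilutions, 20 μM to 0.001 μM final) and PD-1 Fc (6 nM final) preincubated 15 min at room temperature. Anti-human IgG-XL665 and anti-6HIS Tb cryptate (mixed at 6.7 nM and 0.35 nM) then added for 1 h at room temperature before reading.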
Background: TR-FRET usually uses a lanthanide donor and a delayed reading to cut background.

By pIC50 is commonly meant the IC50 on a negative log10 scale, so that one unit is a factor of ten.

pIC50: −log10 of the molar value.

Chain of PD-L1 His protein / PD-1 Fc protein (Q9NZQ7 19-238 limits assumed): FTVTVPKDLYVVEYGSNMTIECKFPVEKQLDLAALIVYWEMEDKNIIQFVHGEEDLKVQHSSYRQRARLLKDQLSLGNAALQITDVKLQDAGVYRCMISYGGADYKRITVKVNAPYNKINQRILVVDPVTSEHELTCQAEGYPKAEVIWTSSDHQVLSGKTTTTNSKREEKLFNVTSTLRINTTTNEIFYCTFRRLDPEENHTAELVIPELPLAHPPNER

As to `COc1nc(-c2cccc(-c3cccc(-c4ccn5c(=O)c(CNC[C@@H]6CCC(=O)N6)cnc5c4)c3Cl)c2Cl)ccc1CN1CC[C@@H](O)C1` [Example 170, 8-(2,2′-Dichloro-3′-(5-(((R)-3-hydroxypyrrolidin-1-yl)methyl)-6-methoxypyridin-2-yl)-[1,1′-biphenyl]-3-yl)-3-(((((S)-5-oxopyrrolidin-2-yl)methyl)amino)methyl)-4H-pyrido[1,2-a]pyrimidin-4-one], the pIC50 was 9.52.
`COC(=O)C1CN=C(c2cnc3cc(-c4cccc(-c5cccc(-c6ccc(CNC[C@@H]7CCC(=O)N7)c(OC)n6)c5Cl)c4Cl)ccn3c2=O)N1` (stereo partly drawn) [Example 171, Methyl 2-(8-(2,2′-dichloro-3′-(6-methoxy-5-(((((S)-5-oxopyrrolidin-2-yl)methyl)amino)methyl)pyridin-2-yl)-[1,1′-biphenyl]-3-yl)-4-oxo-4H-pyrido[1,2-a]pyrimidin-3-yl)-4,5-dihydro-1H-imidazole-5-carboxylate] showed a pIC50 of 9.70.
On to `COc1nc(-c2cccc(-c3cccc(-c4ccn5c(=O)c(CN6CC[C@H](C(=O)O)C6)cnc5c4)c3Cl)c2Cl)ccc1CNCCO` [Example 172, (S)-1-((8-(2,2′-Dichloro-3′-(5-(((2-hydroxyethyl)amino)methyl)-6-methoxypyridin-2-yl)-[1,1′-biphenyl]-3-yl)-4-oxo-4H-pyrido[1,2-a]pyrimidin-3-yl)methyl)pyrrolidine-3-carboxylic acid], for which the pIC50 is 9.52.
Turning to `N#CCCOc1cc(/C=C/c2cccc(-c3cccc(-c4ccn5c(=O)c(CNC[C@@H]6CCC(=O)N6)cnc5c4)c3Cl)c2Cl)c(Cl)cc1CN1CC[C@H](C(=O)O)C1` [Example 173, (S)-1-(5-Chloro-2-(2-cyanoethoxy)-4-((E)-2-(2,2′-dichloro-3′-(4-oxo-3-(((((S)-5-oxopyrrolidin-2-yl)methyl)amino)methyl)-4H-pyrido[1,2-a]pyrimidin-8-yl)-[1,1′-biphenyl]-3-yl)vinyl)benzyl)pyrrolidine-3-carboxylic acid], the pIC50 was 9.40.
Then `COc1nc(-c2cccc(-c3cccc(-c4ccn5c(=O)c(CNC[C@@H]6CCC(=O)N6)cnc5c4)c3Cl)c2Cl)ccc1CN[C@H]1CCOC[C@@H]1O` [Example 174, 8-(2,2′-Dichloro-3′-(5-((((3R,4S)-3-hydroxytetrahydro-2H-pyran-4-yl)amino)methyl)-6-methoxypyridin-2-yl)-[1,1′-biphenyl]-3-yl)-3-(((((S)-5-oxopyrrolidin-2-yl)methyl)amino)methyl)-4H-pyrido[1,2-a]pyrimidin-4-one], with 9.10; and `COc1nc(-c2cccc(-c3cccc(-c4ccn5c(=O)c(CNC[C@@H]6CCC(=O)N6)cnc5c4)c3Cl)c2Cl)ccc1CN1CC[C@H](O)C1` [Example 175, 8-(2,2′-Dichloro-3′-(5-(((S)-3-hydroxypyrrolidin-1-yl)methyl)-6-methoxypyridin-2-yl)-[1,1′-biphenyl]-3-yl)-3-(((((S)-5-oxopyrrolidin-2-yl)methyl)amino)methyl)-4H-pyrido[1,2-a]pyrimidin-4-one], with 10.00; and `COc1c(CNC[C@@H]2CCC(=O)N2)ccc2nc(-c3cccc(-c4cccc(-c5ccn6c(=O)c(CNC[C@@H]7CCC(=O)N7)cnc6c5)c4Cl)c3Cl)ccc12` [Example 176, 8-(2,2′-Dichloro-3′-(5-methoxy-6-(((((S)-5-oxopyrrolidin-2-yl)methyl)amino)methyl)quinolin-2-yl)-[1,1′-biphenyl]-3-yl)-3-(((((S)-5-oxopyrrolidin-2-yl)methyl)amino)methyl)-4H-pyrido[1,2-a]pyrimidin-4-one], with 6.60.
`COc1nc(/C=C2\CCc3c2cccc3-c2cccc(-c3ccn4c(=O)c(CNC[C@@H]5CCC(=O)N5)cnc4c3)c2Cl)c(Cl)cc1CNC[C@@H]1CCC(=O)N1` [Example 177, 8-(2-Chloro-3-((E)-1-((3-chloro-6-methoxy-5-(((((S)-5-oxopyrrolidin-2-yl)methyl)amino)methyl)pyridin-2-yl)methylene)-2,3-dihydro-1H-inden-4-yl)phenyl)-3-(((((S)-5-oxopyrrolidin-2-yl)methyl)amino)methyl)-4H-pyrido[1,2-a]pyrimidin-4-one] gave a pIC50 of 8.30.
For `COc1nc(-c2cccc(-c3cccc(-c4ccn5c(=O)c(CNC[C@@H]6CCC(=O)N6)cnc5c4)c3Cl)c2Cl)ccc1C1=NCC(O)CN1` (stereo partly drawn) [Example 178, 8-(2,2′-Dichloro-3′-(5-(5-hydroxy-1,4,5,6-tetrahydropyrimidin-2-yl)-6-methoxypyridin-2-yl)-[1,1′-biphenyl]-3-yl)-3-(((((S)-5-oxopyrrolidin-2-yl)methyl)amino)methyl)-4H-pyrido[1,2-a]pyrimidin-4-one], the pIC50 is 8.46.
Take `COc1nc(-c2cccc(-c3cccc(-c4ccn5c(=O)c(CNC[C@H](C)O)c(C)nc5c4)c3Cl)c2Cl)ccc1CNC[C@H](C)O` [Example 181, 8-(2,2′-Dichloro-3′-(5-((((S)-2-hydroxypropyl)amino)methyl)-6-methoxypyridin-2-yl)-[1,1′-biphenyl]-3-yl)-3-((((S)-2-hydroxypropyl)amino)methyl)-2-methyl-4H-pyrido[1,2-a]pyrimidin-4-one]: the pIC50 was 8.42.
For `COc1nc(-c2cccc(-c3cccc(-c4ccn5c(=O)c(CNCCC(=O)O)cnc5c4)c3Cl)c2Cl)ccc1CNC[C@@H]1CCC(=O)N1` [Example 182, (S)-3-(((8-(2,2′-Dichloro-3′-(6-methoxy-5-((((5-oxopyrrolidin-2-yl)methyl)amino)methyl)pyridin-2-yl)-[1,1′-biphenyl]-3-yl)-4-oxo-4H-pyrido[1,2-a]pyrimidin-3-yl)methyl)amino)propanoic acid], the pIC50 is 10.00.
`COc1nc(-c2cccc(-c3cccc(-c4cc(C)n5c(=O)c(CNC[C@@H]6CCC(=O)N6)cnc5c4)c3Cl)c2Cl)ccc1CNC[C@@H]1CCC(=O)N1` [Example 183, 8-(2,2′-Dichloro-3′-(6-methoxy-5-(((((S)-5-oxopyrrolidin-2-yl)methyl)amino)methyl)pyridin-2-yl)-[1,1′-biphenyl]-3-yl)-6-methyl-3-(((((S)-5-oxopyrrolidin-2-yl)methyl)amino)methyl)-4H-pyrido[1,2-a]pyrimidin-4-one] showed a pIC50 of 7.36.
Regarding `COc1nc(-c2cccc(-c3cccc(-c4ccn5c(=O)c(CNC(C)(C)C(=O)O)cnc5c4)c3Cl)c2Cl)ccc1CNC[C@@H]1CCC(=O)N1` [Example 184, (S)-2-(((8-(2,2′-Dichloro-3′-(6-methoxy-5-((((5-oxopyrrolidin-2-yl)methyl)amino)methyl)pyridin-2-yl)-[1,1′-biphenyl]-3-yl)-4-oxo-4H-pyrido[1,2-a]pyrimidin-3-yl)methyl)amino)-2-methylpropanoic acid], the pIC50 was 10.00.
As to `COc1nc(-c2cccc(-c3cccc(-c4ccn5c(=O)c(CNC[C@H](C)O)cnc5c4)c3Cl)c2Cl)ccc1CNC[C@H](C)O` [Example 185, 8-(2,2′-Dichloro-3′-(5-((((S)-2-hydroxypropyl)amino)methyl)-6-methoxypyridin-2-yl)-[1,1′-biphenyl]-3-yl)-3-((((S)-2-hydroxypropyl)amino)methyl)-4H-pyrido[1,2-a]pyrimidin-4-one], the pIC50 is 8.92.
